{"source": "paper PMC3163098", "about": "(2011)", "assay_type_in_all_cases": "binding", "key": {"cytochrome P450 2B4 [1]": {"target": "T1, cytochrome P450 2B4 (Oryctolagus cuniculus, UniProt P00178, H226Y)", "T1 sequence (P00178 28-491 H226Y)": "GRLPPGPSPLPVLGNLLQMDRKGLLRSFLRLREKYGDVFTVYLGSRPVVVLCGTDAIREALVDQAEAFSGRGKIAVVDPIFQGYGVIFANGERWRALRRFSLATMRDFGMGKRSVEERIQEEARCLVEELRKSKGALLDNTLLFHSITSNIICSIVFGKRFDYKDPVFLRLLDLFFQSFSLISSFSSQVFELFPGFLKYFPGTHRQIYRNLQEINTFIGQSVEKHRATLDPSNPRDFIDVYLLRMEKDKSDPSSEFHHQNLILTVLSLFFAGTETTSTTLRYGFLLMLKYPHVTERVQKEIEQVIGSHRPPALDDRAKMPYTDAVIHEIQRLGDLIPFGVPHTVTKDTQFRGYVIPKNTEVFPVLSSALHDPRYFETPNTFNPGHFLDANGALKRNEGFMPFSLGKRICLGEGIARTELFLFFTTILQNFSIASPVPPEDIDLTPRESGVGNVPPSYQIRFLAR", "test": "UV-visible competition with benzphetamine"}, "cytochrome P450 2B4 [2]": {"target": "T1, cytochrome P450 2B4", "test": "UV-visible difference spectral titration"}, "cytochrome P450 2B4 [3]": {"target": "T1, cytochrome P450 2B4", "test": "UV-visible difference spectral titration", "remark": "listed apart in the source"}, "cytochrome P450 2B4 [4]": {"target": "T1, cytochrome P450 2B4", "test": "UV-visible difference spectral titration", "remark": "listed apart in the source"}}}
{"smiles": "Cc1c(N(C)C)c(=O)n(-c2ccccc2)n1C", "note": "[AP, amidopyrine]", "values": [{"measurement": "Kd", "setting": "cytochrome P450 2B4 [1]", "value": 2000, "unit": "µM"}]}
{"smiles": "C[C@@H](Cc1ccccc1)N(C)Cc1ccccc1", "note": "[BP, benzphetamine]", "values": [{"measurement": "Kd", "setting": "cytochrome P450 2B4 [2]", "value": 34, "unit": "µM"}]}
{"smiles": "CNc1c(C)n(C)n(-c2ccccc2)c1=O", "note": "[DMAP, desmethylamidopyrine]", "values": [{"measurement": "Kd", "setting": "cytochrome P450 2B4 [3]", "value": 3200, "unit": "µM"}]}
{"smiles": "Cc1c(N)c(=O)n(-c2ccccc2)n1C", "note": "[AAP, aminoantipyrine]", "values": [{"measurement": "Kd", "setting": "cytochrome P450 2B4 [4]", "value": 2600, "unit": "µM"}]}
